Activity calls are given as the source filed them. The calls are words filed in the database; no cut-off is given here.
Tests used:
HepG2 [1] = test: Antiproliferative activity against human HepG2 cells expressing VEGFR2 assessed as cell growth inhibition measured after 48 hrs by MTT assay; assay type: functional, cell-based; settings: HepG2, 48 h
HUVEC = test: Antiproliferative activity against human HUVEC cells expressing VEGFR2 assessed as cell growth inhibition measured after 48 hrs by MTT assay; assay type: functional, cell-based
MDA-MB-231 = test: Antiproliferative activity against human MDA-MB-231 cells expressing EGFR assessed as cell growth inhibition measured after 48 hrs by MTT assay; assay type: functional, cell-based; settings: MDA-MB-231, 48 h
[2] = target: T1, Vascular endothelial growth factor receptor 2 (Homo sapiens, UniProt P35968); settings: at 1 µM
Description: Inhibition of VEGFR2 (unknown origin) at 1 uM using poly (Glu,Tyr) 4:1 as substrate measured after 1 hr in presence of ATP by spectrophotometric analysis relative to control

[3] = target: Epidermal growth factor receptor (Homo sapiens) (UniProt P00533); test: Inhibition of EGFR (unknown origin) at 1 uM using poly (Glu,Tyr) 4:1 as substrate measured after 1 hr in presence of ATP by spectrophotometric analysis relative to control
Chorioallantoic membrane = test: Antiangiogenic activity in chicken fertilized egg chorioallantoic membrane assessed as decrease in blood vessel growth at 10 nM measured after 48 hrs by microscopic analysis; assay type: functional, tissue-based; settings: Gallus gallus
A549 = test: Antiproliferative activity against human A549 cells expressing EGFR assessed as cell growth inhibition measured after 48 hrs by MTT assay; assay type: functional, cell-based; settings: A549, 48 h
[4] = target: T1, Vascular endothelial growth factor receptor 2; test: Inhibition of VEGFR2 (unknown origin) using poly (Glu,Tyr) 4:1 as substrate measured after 1 hr in presence of ATP by spectrophotometric analysis
L02 = test: Cytotoxicity against human LO2 cells; assay type: cell-based
HepG2 [5] = test: Cell cycle arrest in human HepG2 cells assessed as accumulation at G2 phase at 1 nM measured after 6 hrs by propidium iodide staining based flow cytometry analysis (reference value: 52.1 %); assay type: functional
HepG2 [6] = test: Cell cycle arrest in human HepG2 cells assessed as accumulation at G1 phase at 1 nM measured after 6 hrs by propidium iodide staining based flow cytometry analysis (reference value: 47.9 %); assay type: functional
[7] = Solubility of compound; assay type: physicochemical
HepG2 [8] = test: Induction of apoptosis in human HepG2 cells assessed as apoptotic cells at 1 nM measured after 6 to 24 hrs by dUTP-FITC/propidium iodide staining based flow cytometry analysis (reference value: 2.6 %); assay type: functional
HepG2 [9] = test: Cell cycle arrest in human HepG2 cells assessed as accumulation at S phase at 1 nM measured after 6 hrs by propidium iodide staining based flow cytometry analysis (reference value: 0 %); assay type: functional
HepG2 [10] = test: Cell cycle arrest in human HepG2 cells assessed as accumulation at S phase at 10 nM measured after 6 hrs by propidium iodide staining based flow cytometry analysis (reference value: 0 %); assay type: functional
HepG2 [11] = test: Cell cycle arrest in human HepG2 cells assessed as accumulation at G0/G1 phase measured after 6 hrs by propidium iodide staining based flow cytometry analysis; assay type: functional
HepG2 [12] = test: Induction of apoptosis in human HepG2 cells assessed as apoptotic cells at 10 nM measured after 6 to 24 hrs by dUTP-FITC/propidium iodide staining based flow cytometry analysis (reference value: 2.6 %); assay type: functional
HepG2 [13] = test: Cell cycle arrest in human HepG2 cells assessed as accumulation at G1 phase at 10 nM measured after 6 hrs by propidium iodide staining based flow cytometry analysis (reference value: 47.9 %); assay type: functional
HepG2 [14] = test: Cell cycle arrest in human HepG2 cells assessed as accumulation at G2 phase at 10 nM measured after 6 hrs by propidium iodide staining based flow cytometry analysis (reference value: 52.1 %); assay type: functional
HepG2 [15] = test: Induction of apoptosis in human HepG2 cells assessed as necrotic cells at 1 nM measured after 24 hrs by dUTP-FITC/propidium iodide staining based flow cytometry analysis (reference value: 0.2 %)
HepG2 [16] = test: Induction of apoptosis in human HepG2 cells assessed as necrotic cells at 10 nM measured after 24 hrs by dUTP-FITC/propidium iodide staining based flow cytometry analysis (reference value: 0.2 %)

Epidermal growth factor receptor (Homo sapiens), sequence (P00533 whole entry): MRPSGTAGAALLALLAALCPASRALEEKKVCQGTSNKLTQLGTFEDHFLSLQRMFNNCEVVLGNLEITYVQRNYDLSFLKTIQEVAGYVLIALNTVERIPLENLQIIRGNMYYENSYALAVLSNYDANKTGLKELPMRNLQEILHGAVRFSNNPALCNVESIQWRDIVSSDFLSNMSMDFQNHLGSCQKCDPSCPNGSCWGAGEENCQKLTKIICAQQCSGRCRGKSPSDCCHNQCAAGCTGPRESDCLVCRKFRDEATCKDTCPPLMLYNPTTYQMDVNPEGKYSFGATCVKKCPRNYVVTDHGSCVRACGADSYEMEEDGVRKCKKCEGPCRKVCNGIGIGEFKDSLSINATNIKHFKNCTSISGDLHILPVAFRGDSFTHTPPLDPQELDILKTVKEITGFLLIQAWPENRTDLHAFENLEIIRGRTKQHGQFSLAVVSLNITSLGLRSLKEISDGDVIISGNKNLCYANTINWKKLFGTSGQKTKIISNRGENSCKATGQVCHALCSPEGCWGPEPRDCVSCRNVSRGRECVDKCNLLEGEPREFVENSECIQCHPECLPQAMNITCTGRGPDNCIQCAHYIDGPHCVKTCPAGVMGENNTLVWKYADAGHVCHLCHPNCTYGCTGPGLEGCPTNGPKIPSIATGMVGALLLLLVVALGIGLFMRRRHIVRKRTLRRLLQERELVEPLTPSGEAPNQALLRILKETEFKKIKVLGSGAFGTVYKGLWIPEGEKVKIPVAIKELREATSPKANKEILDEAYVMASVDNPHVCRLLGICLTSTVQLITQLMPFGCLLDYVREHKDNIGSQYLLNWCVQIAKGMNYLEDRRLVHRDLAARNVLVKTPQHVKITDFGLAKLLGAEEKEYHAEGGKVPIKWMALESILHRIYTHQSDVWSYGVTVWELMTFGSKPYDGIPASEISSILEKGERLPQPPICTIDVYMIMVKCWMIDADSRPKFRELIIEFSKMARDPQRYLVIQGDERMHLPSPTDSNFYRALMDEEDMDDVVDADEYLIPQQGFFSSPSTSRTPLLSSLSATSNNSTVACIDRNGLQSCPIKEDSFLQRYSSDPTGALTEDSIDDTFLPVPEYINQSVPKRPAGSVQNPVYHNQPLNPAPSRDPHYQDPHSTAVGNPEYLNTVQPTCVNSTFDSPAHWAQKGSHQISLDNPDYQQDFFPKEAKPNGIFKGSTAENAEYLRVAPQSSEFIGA
T1 sequence (P35968 whole entry): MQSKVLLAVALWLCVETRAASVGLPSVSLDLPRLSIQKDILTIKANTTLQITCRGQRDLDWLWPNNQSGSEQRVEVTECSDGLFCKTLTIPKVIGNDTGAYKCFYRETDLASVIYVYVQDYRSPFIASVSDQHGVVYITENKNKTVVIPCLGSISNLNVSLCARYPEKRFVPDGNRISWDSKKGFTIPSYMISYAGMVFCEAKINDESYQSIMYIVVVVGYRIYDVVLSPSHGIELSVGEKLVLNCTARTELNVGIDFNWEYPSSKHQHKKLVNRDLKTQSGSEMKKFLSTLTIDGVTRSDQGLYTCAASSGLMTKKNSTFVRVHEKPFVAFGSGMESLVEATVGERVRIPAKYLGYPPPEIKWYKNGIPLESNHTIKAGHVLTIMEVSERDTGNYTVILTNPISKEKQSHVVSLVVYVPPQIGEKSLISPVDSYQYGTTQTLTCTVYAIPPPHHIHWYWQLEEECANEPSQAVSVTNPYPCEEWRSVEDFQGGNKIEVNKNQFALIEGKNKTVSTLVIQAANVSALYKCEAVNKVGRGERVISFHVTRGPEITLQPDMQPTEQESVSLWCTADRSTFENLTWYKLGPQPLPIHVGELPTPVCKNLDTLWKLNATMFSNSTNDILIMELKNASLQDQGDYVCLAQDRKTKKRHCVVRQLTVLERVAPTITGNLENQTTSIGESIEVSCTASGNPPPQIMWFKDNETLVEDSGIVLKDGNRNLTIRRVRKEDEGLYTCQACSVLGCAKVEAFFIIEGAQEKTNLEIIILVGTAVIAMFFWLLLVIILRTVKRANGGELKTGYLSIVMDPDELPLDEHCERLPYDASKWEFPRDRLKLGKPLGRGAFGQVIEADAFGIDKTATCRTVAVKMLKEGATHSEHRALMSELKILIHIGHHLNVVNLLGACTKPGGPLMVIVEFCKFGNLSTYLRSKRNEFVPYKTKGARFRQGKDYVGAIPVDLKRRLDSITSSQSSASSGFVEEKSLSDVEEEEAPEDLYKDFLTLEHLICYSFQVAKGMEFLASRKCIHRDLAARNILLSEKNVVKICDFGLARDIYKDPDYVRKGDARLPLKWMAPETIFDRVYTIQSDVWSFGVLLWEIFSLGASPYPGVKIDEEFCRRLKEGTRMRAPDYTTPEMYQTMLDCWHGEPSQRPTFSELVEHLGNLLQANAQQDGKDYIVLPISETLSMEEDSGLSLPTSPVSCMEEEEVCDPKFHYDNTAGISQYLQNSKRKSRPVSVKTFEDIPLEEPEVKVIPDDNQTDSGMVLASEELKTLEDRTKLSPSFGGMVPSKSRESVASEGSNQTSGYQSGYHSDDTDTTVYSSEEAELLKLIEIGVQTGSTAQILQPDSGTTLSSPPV

O=C(Nc1ccc(Nc2ccc([N+](=O)[O-])c3ncnc(O)c23)cc1)c1ccccc1Cl
IC50 (HepG2 [1]): 28 µM
IC50 (HUVEC): 26.5 µM
IC50 (MDA-MB-231): 96.1 µM
inhibition [2]: 76.9%
inhibition [3]: 50.3%
Activity (Chorioallantoic membrane): Active
IC50 (A549): 90.3 µM

O=C(Nc1ccc(Nc2ccc([N+](=O)[O-])c3ncnc(O)c23)cc1)c1ccccc1
IC50 (HepG2 [1]): 7.41 µM
IC50 (HUVEC): 5.7 µM
IC50 [4]: 735 nM
IC50 (MDA-MB-231): 86.3 µM
inhibition [2]: 92.4%
inhibition [3]: 53.8%
Activity (Chorioallantoic membrane): Active
IC50 (A549): 87.4 µM
IC50 (L02): 65.3 µM

Cc1ccccc1C(=O)Nc1ccc(Nc2ccc([N+](=O)[O-])c3ncnc(O)c23)cc1
IC50 (HepG2 [1]): 30.1 µM
IC50 (HUVEC): 37.2 µM
IC50 (MDA-MB-231): > 100 µM
inhibition [2]: 65.8%
inhibition [3]: 41.7%
IC50 (A549): 91.6 µM

O=C(Nc1ccc(Nc2ccc([N+](=O)[O-])c3ncnc(O)c23)cc1)c1cccc(Cl)c1
IC50 (HepG2 [1]): 42 µM
IC50 (HUVEC): 36.7 µM
IC50 (MDA-MB-231): > 100 µM
inhibition [2]: 63.2%
inhibition [3]: 27.7%
Activity (Chorioallantoic membrane): Active
IC50 (A549): > 100 µM

O=C(Nc1ccc(Nc2ccc([N+](=O)[O-])c3ncnc(O)c23)cc1)c1ccc(F)cc1
Activity (HepG2 [5]): 35.9%
IC50 (HepG2 [1]): 0.2 µM
IC50 (HUVEC): 0.5 µM
Activity (HepG2 [6]): 52.6%
solubility [7]: Soluble
Activity (HepG2 [8]): 34.3%
IC50 [4]: 64.8 nM
Activity (HepG2 [9]): 11.5%
Activity (HepG2 [10]): 34%
Activity (HepG2 [11]): Dose-dependent effect
IC50 (MDA-MB-231): 58.4 µM
Activity (HepG2 [12]): 72.2%
Activity (HepG2 [13]): 41.7%
inhibition [2]: 102%
inhibition [3]: 69.2%
Activity (HepG2 [14]): 24.3%
Activity (Chorioallantoic membrane): Active
IC50 (A549): 69 µM
Activity (HepG2 [15]): 2.5%
IC50 (L02): 63.2 µM
Activity (HepG2 [16]): 2.1%

COc1cccc(C(=O)Nc2ccc(Nc3ccc([N+](=O)[O-])c4ncnc(O)c34)cc2)c1
IC50 (HepG2 [1]): 64.2 µM
IC50 (HUVEC): 57.8 µM
IC50 (MDA-MB-231): > 100 µM
inhibition [2]: 47.6%
inhibition [3]: 36.7%
IC50 (A549): > 100 µM

Cc1ccccc1C(=O)Nc1cccc(Nc2ccc([N+](=O)[O-])c3ncnc(O)c23)c1
IC50 (HepG2 [1]): 90.3 µM
IC50 (HUVEC): 89.6 µM
IC50 (MDA-MB-231): > 100 µM
inhibition [2]: 21.6%
inhibition [3]: 6.4%
IC50 (A549): > 100 µM

Cc1cccc(C(=O)Nc2cccc(Nc3ccc([N+](=O)[O-])c4ncnc(O)c34)c2)c1
IC50 (HepG2 [1]): > 100 µM
IC50 (HUVEC): 93.6 µM
IC50 (MDA-MB-231): > 100 µM
inhibition [2]: 18%
inhibition [3]: 11.3%
IC50 (A549): > 100 µM

COc1ccccc1C(=O)Nc1ccc(Nc2ccc([N+](=O)[O-])c3ncnc(O)c23)cc1
IC50 (HepG2 [1]): 40.7 µM
IC50 (HUVEC): 36.3 µM
IC50 (MDA-MB-231): 95.8 µM
inhibition [2]: 60.3%
inhibition [3]: 43.6%
IC50 (A549): > 100 µM

O=C(Nc1cccc(Nc2ccc([N+](=O)[O-])c3ncnc(O)c23)c1)c1cccc(F)c1
IC50 (HepG2 [1]): 72.1 µM
IC50 (HUVEC): 74.2 µM
IC50 (MDA-MB-231): > 100 µM
inhibition [2]: 38.1%
inhibition [3]: 27.3%
IC50 (A549): > 100 µM

O=C(Nc1ccc(Nc2ccc([N+](=O)[O-])c3ncnc(O)c23)cc1)c1cccc(F)c1
IC50 (HepG2 [1]): 36.1 µM
IC50 (HUVEC): 38.9 µM
IC50 (MDA-MB-231): > 100 µM
inhibition [2]: 69.4%
inhibition [3]: 36.9%
Activity (Chorioallantoic membrane): Active
IC50 (A549): 83.3 µM

O=C(Nc1ccc(Nc2ccc([N+](=O)[O-])c3ncnc(O)c23)cc1)c1ccc(Cl)cc1
IC50 (HepG2 [1]): 0.9 µM
IC50 (HUVEC): 1.6 µM
IC50 [4]: 363 nM
IC50 (MDA-MB-231): 95.1 µM
inhibition [2]: 97.9%
inhibition [3]: 64.1%
Activity (Chorioallantoic membrane): Active
IC50 (A549): 83 µM
IC50 (L02): 73.5 µM

COc1ccccc1C(=O)Nc1cccc(Nc2ccc([N+](=O)[O-])c3ncnc(O)c23)c1
IC50 (HepG2 [1]): 90.3 µM
IC50 (HUVEC): 82 µM
IC50 (MDA-MB-231): > 100 µM
inhibition [2]: 26.9%
inhibition [3]: 12.4%
IC50 (A549): > 100 µM

O=C(Nc1ccc(Nc2ccc([N+](=O)[O-])c3ncnc(O)c23)cc1)Nc1cc(C(F)(F)F)ccc1Cl
IC50 (HepG2 [1]): 13.7 µM
IC50 (HUVEC): 2.1 µM
IC50 [4]: 15.4 nM
IC50 (MDA-MB-231): > 100 µM
inhibition [2]: 102%
inhibition [3]: 21.8%
IC50 (A549): > 100 µM
IC50 (L02): 84.2 µM

Cc1ccc(C(=O)Nc2ccc(Nc3ccc([N+](=O)[O-])c4ncnc(O)c34)cc2)cc1
IC50 (HepG2 [1]): 18.5 µM
IC50 (HUVEC): 14.3 µM
IC50 (MDA-MB-231): 94.7 µM
inhibition [2]: 83.7%
inhibition [3]: 57.2%
Activity (Chorioallantoic membrane): Active
IC50 (A549): > 100 µM
IC50 (L02): 93.2 µM

O=C(Nc1cccc(Nc2ccc([N+](=O)[O-])c3ncnc(O)c23)c1)c1cccc(Cl)c1
IC50 (HepG2 [1]): 93 µM
IC50 (HUVEC): 86.5 µM
IC50 (MDA-MB-231): > 100 µM
inhibition [2]: 29.2%
inhibition [3]: 26.3%
IC50 (A549): > 100 µM

O=C(Nc1ccc(Nc2ccc([N+](=O)[O-])c3ncnc(O)c23)cc1)c1ccccc1F
IC50 (HepG2 [1]): 21 µM
IC50 (HUVEC): 23.8 µM
IC50 (MDA-MB-231): 93.2 µM
inhibition [2]: 73.8%
inhibition [3]: 42.1%
Activity (Chorioallantoic membrane): Active
IC50 (A549): 85.8 µM

O=C(Nc1cccc(Nc2ccc([N+](=O)[O-])c3ncnc(O)c23)c1)c1ccc(Cl)cc1
IC50 (HepG2 [1]): 76.3 µM
IC50 (HUVEC): 73.8 µM
IC50 (MDA-MB-231): > 100 µM
inhibition [2]: 38.5%
inhibition [3]: 9.4%
IC50 (A549): > 100 µM

O=C(Nc1cccc(Nc2ccc([N+](=O)[O-])c3ncnc(O)c23)c1)c1ccc(F)cc1
IC50 (HepG2 [1]): 68.5 µM
IC50 (HUVEC): 63.2 µM
IC50 (MDA-MB-231): > 100 µM
inhibition [2]: 41.9%
inhibition [3]: 18.5%
IC50 (A549): 95 µM

O=C(Nc1cccc(Nc2ccc([N+](=O)[O-])c3ncnc(O)c23)c1)c1ccccc1
IC50 (HepG2 [1]): 75.2 µM
IC50 (HUVEC): 79.1 µM
IC50 (MDA-MB-231): > 100 µM
inhibition [2]: 37.8%
inhibition [3]: 15.4%
IC50 (A549): > 100 µM

CNC(=O)c1cc(Oc2ccc(NC(=O)Nc3ccc(Cl)c(C(F)(F)F)c3)cc2)ccn1 [SORAFENIB]
IC50 (HepG2 [1]): 3.6 µM
IC50 (HUVEC): 4.1 µM
IC50 (MDA-MB-231): 15.8 µM
Activity (Chorioallantoic membrane): Active
IC50 (A549): 8.1 µM
IC50 (L02): 72.9 µM

O=C(Nc1cccc(Nc2ccc([N+](=O)[O-])c3ncnc(O)c23)c1)c1ccccc1Cl
IC50 (HepG2 [1]): 71.9 µM
IC50 (HUVEC): 74.6 µM
IC50 (MDA-MB-231): > 100 µM
inhibition [2]: 30.1%
inhibition [3]: 22.5%
IC50 (A549): > 100 µM

O=C(Nc1cccc(Nc2ccc([N+](=O)[O-])c3ncnc(O)c23)c1)c1ccccc1F
IC50 (HepG2 [1]): 69.6 µM
IC50 (HUVEC): 70.4 µM
IC50 (MDA-MB-231): > 100 µM
inhibition [2]: 35.8%
inhibition [3]: 17.2%
IC50 (A549): > 100 µM

Cc1ccc(C(=O)Nc2ccc(CN3CCN(C)CC3)c(C(F)(F)F)c2)cc1C#Cc1cnc2cccnn12 [PONATINIB]
IC50 (HepG2 [1]): 0.6 µM
IC50 (HUVEC): 0.5 µM
IC50 (MDA-MB-231): 10.5 µM
IC50 (A549): 5.3 µM
IC50 (L02): 64.7 µM

Cc1cccc(C(=O)Nc2ccc(Nc3ccc([N+](=O)[O-])c4ncnc(O)c34)cc2)c1
IC50 (HepG2 [1]): 40.8 µM
IC50 (HUVEC): 47 µM
IC50 (MDA-MB-231): > 100 µM
inhibition [2]: 58.2%
inhibition [3]: 37.8%
IC50 (A549): > 100 µM

Cc1ccc(C(=O)Nc2cccc(Nc3ccc([N+](=O)[O-])c4ncnc(O)c34)c2)cc1
IC50 (HepG2 [1]): 74 µM
IC50 (HUVEC): 80.5 µM
IC50 (MDA-MB-231): > 100 µM
inhibition [2]: 32.7%
inhibition [3]: 12.8%
IC50 (A549): > 100 µM

From ChEMBL document CHEMBL4406886, “Discovery of arylamide-5-anilinoquinazoline-8-nitro derivatives as VEGFR-2 kinase inhibitors: Synthesis, in vitro biological evaluation and molecular docking” (Bioorg Med Chem Lett, 2019)
